Tested on: ethanol-induced gastric ulcers in rats
Assay: ethanol-induced gastric ulcer model in rats (anti-ulcerogenic activity)
Type: in vivo, Albino rats
Design: key to Ulcer index: sum of lesion lengths (mm) per stomach
Details: for Ulcer index: mean ± SEM, n = 5; for % Inhibition: versus saline group
Description: Albino rats (weighing 180-220 g) were housed at the animal house of the […] Institute of Pharmaceutical Sciences under controlled environment (23-25 °C). Animals were kept in plastic cages with sawdust (changed at every 48 h) and were fasted for 24 h before starting the experiment. Animals were provided with tap water ad libitum and standard pellet diet. Experiments performed complied with rules of Institute of Laboratory Animal Resources, Commission on Life Sciences University, National Research Council (1996) and were approved by Ethical Committee of […] Institute of Pharmaceutical Sciences, […] International University. Albino rats (180-220 g) of either sex were divided into different groups (n = 5). Animals were fasted for 24 h before the study, but had free access to water. Animals in the control group received only normal saline (10 mL/kg). Compound 5a at doses of 100 and 500 μg/kg, (p. o.) was given to the animals in the treatment group. Same procedure was repeated for Compund 5b, 5c, 5d, 5e and 5f. Omeprazole (30 mg/kg) was used as a standard. The rats were sacrificed 1 h later and the stomach removed and observed for ulcers in the glandular region. The surface area of each lesion was measured and scored by method with described by Tan et al. with some modifications. The ulcer index for each rat was taken as the mean ulcer score (0: no ulcer; 1: US ≤ 0.5 mm^2; 2: 0.5 < US ≤ 2.5 mm^2; 3: 2.5 mm^2 < US ≤ 5 mm^2; 4: 5 mm^2 < US ≤ 10 mm^2; 5: 10 mm^2 < US ≤ 15 mm^2; 6: 15 mm^2 < US ≤ 20 mm^2; 7: 20 mm^2 < US ≤ 25 mm^2; 8: 25 mm^2 < US ≤ 30 mm^2; 9: 30 mm^2 < US ≤ 35 mm^2; 10: US > 35 mm^2). The sum of the length (mm) of all the lesions for each stomach was used as the ulcer index (UI). The percentage of inhibition (% I) was calculated using the following formula: %I=USc-USt×100/USc where USc = ulcer surface area of control and USt = ulcer surface area of test animal. The anti-ulcer activity of all the benzimidazole-pyrazole hybrids 5a-f was tested in vivo by ethanol-induced gastric ulcer model in rats. Rats received test compounds in two different doses; 100 and 500 μg/kg orally. Omeprazole (30 mg/kg) was used as a standard. The rats were sacrificed 1 h later and the stomach removed and observed for ulcers in the glandular region. The surface area of each lesion was measured and scored by method. […] Figure 2 show the gastric mucosa of rats. […] The results clearly indicated the greater anti-ulcer potential of our synthesized compounds as compared to omeprazole, the currently used anti-ulcer drug. […] It was observed that substitution pattern of both the aromatic rings attached to pyrazole ring effect the anti-ulcer activity. The highest activity was shown by compound 5d i.e. 83.1% at 500 μg/kg dose. All the compounds were docked against H^+/K^+ ATPase to assess the binding affinities and compared with Omeprazole which is a known mercapto benzimidazole derivative and H^+/K^+ ATPase inhibitor. […] 5d has maximum binding affinity of -9.8 kcal/mole due to maximum number of hydrogen bonding interactions with the target.

[1] = 100 µg/kg p.o. + ethanol (1 mL/100 g)
[2] = 500 µg/kg p.o. + ethanol (1 mL/100 g)
[3] = 30 mg/kg + ethanol (1 mL/100 g)

| Compound | Ulcer index [1] | % Inhibition [1] | Ulcer index [2] | % Inhibition [2] | Ulcer index [3] | % Inhibition [3] | % Inhibition (30 mg/kg + ethanol (1 mL/100 g), listed as omeprazole) |
| --- | --- | --- | --- | --- | --- | --- | --- |
| O=C(CSc1nc2ccccc2[nH]1)n1nc(-c2ccccc2)cc1-c1ccccc1 [Compound 5e, 2-(1H-benzimidazol-2-ylsulfanyl)-1-(3,5-diphenyl-1H-pyrazol-1-yl)ethanone] | 3.18 ± 0.01 | 36.2% | 1.06 ± 0.01 | 79% | – | – | – |
| COc1ccc(-c2cc(-c3ccccc3)nn2C(=O)CSc2nc3ccccc3[nH]2)cc1O [Compound 5f, 2-(1H-benzimidazol-2-ylsulfanyl)-1-[5-(3-hydroxy-4-methoxyphenyl)-3-phenyl-1H-pyrazol-1-yl]ethanone] | 3.75 ± 0.016 | 24.8% | 1.39 ± 0.02 | 72.1% | – | – | – |
| COc1ccc(-c2cc(-c3ccccc3O)n(C(=O)CSc3nc4ccccc4[nH]3)n2)cc1O [Compound 5c, 2-(1H-benzimidazol-2-ylsulfanyl)-1-[5-(2-hydroxyphenyl)-3-(3-hydroxy-4-methoxyphenyl) -1H-pyrazol-1-yl]ethanone] | 3.52 ± 0.009 | 29.4% | 1.48 ± 0.009 | 70.3% | – | – | – |
| O=C(CSc1nc2ccccc2[nH]1)n1nc(-c2ccccc2O)cc1-c1ccccc1O [Compound 5b, 2-(1H-benzimidazol-2-ylsulfanyl)-1-[3,5-bis(2-hydroxyphenyl)-1H-pyrazol-1-yl]ethanone] | 3.48 ± 0.008 | 30.2% | 1.26 ± 0.009 | 74.7% | – | – | – |
| O=C(CSc1nc2ccccc2[nH]1)n1nc(-c2ccccc2)cc1-c1ccccc1O [Compound 5a, 2-(1H-benzimidazol-2-ylsulfanyl)-1-[5-(2-hydroxyphenyl)-3-phenyl-1H-pyrazol-1-yl]ethanone] | 3.22 ± 0.009 | 35.4% | 1.07 ± 0.008 | 78.5% | – | – | – |
| COc1ccc2[nH]c([S+]([O-])Cc3ncc(C)c(OC)c3C)nc2c1 (centres unmarked) [Omeprazole, reference compound] | – | – | – | – | 0.84 ± 0.01 | 83.1% | 83% |

Source: article PMC5581743, “Synthesis, characterization, anti-ulcer action and molecular docking evaluation of novel benzimidazole-pyrazole hybrids” (Chemistry Central Journal, 2017)
